Ten molecules from US11117900B2 (Vertex Pharmaceuticals Incorporated, priority 2012, dated 2021) can be followed below.

For this assay, the system named is HCT116 colorectal cancer cells. Description: Cisplatin sensitization assay (96 h MTS cell viability).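 Further: compound concentration needed to lower the IC50 of Cisplatin alone by a set fold.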 The assay is classed as cell-based. The following applies: Cisplatin sensitization value. The method, boiled down: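 The MTS viability read, after 1 h with reagent, followed 96 h of co-treatment at 37° C. in 5% CO2. Both compound and cisplatin were titrated 2-fold from a 10 μM top final concentration in a complete concentration matrix on HCT116 cells. Scores +++/++/+ reflect cisplatin sensitization value ranges.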
Take `CN1CCN(c2ccncc2NC(=O)c2c(N)nn3cc(C(C)(C)C#N)cnc23)CC1` [I-N-76, 2-amino-6-(2-cyanopropan-2-yl)-N-(4-(4-methylpiperazin-1-yl)pyridin-3-yl)pyrazolo[1,5-a]pyrimidine-3-carboxamide]: the “Cisplatin Sensitization Assay” value was “+++ (Compounds with a Cisplatin sensitization value of <0.02 μM are marked with “+++.”)”.
Then `Cc1ncn(-c2ccncc2NC(=O)c2c(N)nn3cc(F)cnc23)c1C` [I-N-269, 2-amino-N-(4-(4,5-dimethyl-1H-imidazol-1-yl)pyridin-3-yl)-6-fluoropyrazolo[1,5-a]pyrimidine-3-carboxamide], with “++ (Compounds with a Cisplatin sensitization value >0.02 μM but <0.2 μM are marked with “++.”)”.
The value for `CN1CCN(C(=O)C2CCCN(c3c(F)cncc3NC(=O)c3c(N)nn4cc(F)cnc34)C2)CC1` (stereo not shown) [I-N-289, 2-amino-6-fluoro-N-(5-fluoro-4-(3-(4-methylpiperazine-1-carbonyl)piperidin-1-yl)pyridin-3-yl)pyrazolo[1,5-a]pyrimidine-3-carboxamide] was “++ (Compounds with a Cisplatin sensitization value >0.02 μM but <0.2 μM are marked with “++.”)”; that for `N#CCc1cnc2c(C(=O)Nc3cnccc3N3CCC(O)CC3)c(N)nn2c1` [I-N-83, 2-amino-6-(cyanomethyl)-N-(4-(4-hydroxypiperidin-1-yl)pyridin-3-yl)pyrazolo[1,5-a]pyrimidine-3-carboxamide] was “++ (Compounds with a Cisplatin sensitization value >0.02 μM but <0.2 μM are marked with “++.”)”; that for `Nc1nn2cc(Cl)cnc2c1C(=O)Nc1cnccc1O[C@H]1C[C@]2(CCN2)C1` [I-O-78, N-(4-((4s,6r)-1-azaspiro[3.3]heptan-6-yloxy)pyridin-3-yl)-2-amino-6-chloropyrazolo[1,5-a]pyrimidine-3-carboxamide] was “+ (Compounds with a Cisplatin sensitization value >0.2 μM but <5 μM are marked with “+.”)”.
The value for `CC(C)N1CCN2CCN(c3ccncc3NC(=O)c3c(N)nn4cc(F)cnc34)CC2C1=O` (stereo not shown) [I-N-245, 2-amino-6-fluoro-N-(4-(8-isopropyl-9-oxohexahydro-1H-pyrazino[1,2-a]pyrazin-2(6H)-yl)pyridin-3-yl)pyrazolo[1,5-a]pyrimidine-3-carboxamide] was “++ (Compounds with a Cisplatin sensitization value >0.02 μM but <0.2 μM are marked with “++.”)”; that for `CN1CC(C(=O)N2CCN(c3c(F)cncc3NC(=O)c3c(N)nn4cc(F)cnc34)CC2)C1` [I-N-194] was “+++ (Compounds with a Cisplatin sensitization value of <0.02 μM are marked with “+++.”)”.
Consider `CN1CCN(C(=O)C2(C)CCN(c3c(F)cncc3NC(=O)c3c(N)nn4cc(F)cnc34)CC2)CC1` [I-G-54, 2-amino-6-fluoro-N-(5-fluoro-4-(4-methyl-4-(4-methylpiperazine-1-carbonyl)piperidin-1-yl)pyridin-3-yl)pyrazolo[1,5-a]pyrimidine-3-carboxamide], for which the “Cisplatin Sensitization Assay” value is listed as “+++ (Compounds with a Cisplatin sensitization value of <0.02 μM are marked with “+++.”)”.
For the molecule `CC(C)(O)C1CCN(c2ccncc2NC(=O)c2c(N)nn3cc(Cl)cnc23)CC1` [I-N-69, 2-amino-6-chloro-N-(4-(4-(2-hydroxypropan-2-yl)piperidin-1-yl)pyridin-3-yl)pyrazolo[1,5-a]pyrimidine-3-carboxamide], the “Cisplatin Sensitization Assay” value is reported as “+++ (Compounds with a Cisplatin sensitization value of <0.02 μM are marked with “+++.”)”.
On to `CN1CCN(c2c(F)cncc2NC(=O)c2c(N)nn3cc(Cl)cnc23)CC1` [I-N-14, 2-amino-6-chloro-N-(5-fluoro-4-(4-methylpiperazin-1-yl)pyridin-3-yl)pyrazolo[1,5-a]pyrimidine-3-carboxamide], for which the “Cisplatin Sensitization Assay” value is on record as “+++ (Compounds with a Cisplatin sensitization value of <0.02 μM are marked with “+++.”)”.
